Patent US12133899B2 (priority 2020, dated 2024)

How the values were obtained:
[1] = test system: luciferase expression; type: in vivo, mice; conditions: ALC-0315/DSPC/CHOL/ALC-0159 prototype; IV
[2] = in vivo; type: in vivo, rats; conditions: rat; for drop of concentration in liver / drop of concentration in plasma: 2 weeks
Protocol: A single dose PK study of ALC-0315 and […] following intravenous (IV) bolus injection of a nanparticle formulation in rats was conducted to assess the PK and metabolism of lipid excipients ALC-0315 and ALC-0159.

[3] = type: in vitro ADME, mice, rats, monkeys, humans; conditions: blood, microsomes, S9, hepatocytes; rat samples
Protocol: In vitro metabolism of ALC-0315 and ALC-0159 was evaluated in blood, liver microsomes, S9 fractions, and hepatocytes from mice, rats, monkeys, and humans. In vivo metabolism was examined in rat plasma, urine, faeces, and liver samples from the PK study. […] ALC-0315 and ALC-0159 are apparently metabolised by hydrolytic metabolism of the ester and amide functionalities, respectively, and this hydrolytic metabolism is observed across the species evaluated.

Row | Molecule | in vivo potency of Luc RNA LNP vs internal benchmark ALC-0218 [1] | unchanged material in urine or faeces [2] | apparent terminal t½ in plasma and liver ([2]; IV bolus) | drop of concentration in liver ([2]; IV bolus) | drop of concentration in plasma ([2]; IV bolus) | metabolism in vitro and in vivo [3] | half-life ([2]; in vivo, IV bolus, read-out: apparent terminal t½ in plasma and liver) | eliminated unchanged in faeces [2]
1 | ((4-hydroxybutyl)azanediyl)bis(hexane-6,1-diyl)bis(2-hexyldecanoate) [ALC-0315] | improved potency | little to no unchanged material was detected | 140 to 190 h | ~4 fold | approximately 7000 fold | relatively slowly | – | –
2 | CCCCCCCCCCCCCCN(CCCCCCCCCCCCCC)C(=O)COCCOCCOCCOCCOCCOCCOCCOCCOCCOCCOCCOCCOCCOCCOCCOCCOCCOCCOCCOCCOCCOCCOCCOCCOCCOCCOCCOCCOCCOCCOCCOCCOCCOCCOCCOCCOCCOCCOCCOCCOCCOCCOCCOCCOCCOC [ALC-0159, 2-[(polyethylene glycol)-2000]-N,N-ditetradecylacetamide] | – | – | – | > 250 fold | approximately 8000 fold | relatively slowly | 48 to 72 h | 50%
